Test results from patent publication US8895746B2 (University of Central Florida Research Foundation, Inc., priority 2009, dated 2014).

Test system: colocalization of Stat3 and EGFR and Stat3 nuclear translocation
Test: Immunofluorescence/confocal microscopy in EGF-stimulated NIH3T3/hEGFR
Assay type: cell-based, mouse
Conditions: 50 μM pre-treatment 30 min, EGF 10 min
Protocol: Cells were fixed with ice-cold methanol for 15 min, washed 3 times in PBS, permeabilized with 0.2% Triton® X-100 for 10 min, and further washed 3-4 times with PBS. Specimens were then blocked in 1% BSA for 30 min and incubated with EGFR (Santa Cruz) or Stat3 (Cell Signaling Tech) antibody at 1:50 dilution at 4° C. overnight. Subsequently, cells were rinsed 4-5 times in PBS, incubated with Alexafluor 546 rat antibody for EGFR detection and Alexa fluor 488 rabbit antibody for Stat3 detection (Invitrogen) for 1 h at room temperature in the dark. Specimens were then washed 5 times with PBS, covered with cover slides with […] mounting medium containing DAPI, and examined immediately under a Leica TCS SP5 confocal microscope (Germany) at appropriate wavelengths. Images were captured and processed using the Leica TCS SP 5 software.
Cells were then subjected to immunostaining for EGFR (red) and Stat3 (green) and analyzed by confocal microscopy for EGF-induced colocalization of Stat3 and EGFR and for Stat3 nuclear translocation, as previously performed (17). In the resting NIH3T3/hEGFR fibroblasts, EGFR (red) is widely localized at the plasma membrane, while Stat3 (green) is localized at both the plasma membrane and in the cytoplasm, with a minimal colocalization with EGFR at the plasma membrane and no visible presence in the nucleus (stained blue for DAPI) (FIG. 4A upper panel).

## Cc1ccc(S(=O)(=O)N(C)CC(=O)N(Cc2ccc(C3CCCCC3)cc2)c2ccc(C(=O)O)c(O)c2)cc1 [S3I-201.1066]
  EGF-stimulated colocalization between EGFR and Stat3 and Stat3 nuclear localization: strongly blocked
